The source of these data is article PMC10035370, “Targeting Tumor Angiogenesis with the Selective VEGFR-3 Inhibitor EVT801 in Combination with Cancer Immunotherapy” (Cancer Research Communications, 2022).

The structures appear in SMILES notation.

Assay [1] addresses T1, VEGFR-1 (Homo sapiens, UniProt P17948).
T1 construct: expressed in transfected cells; host or cells: HEK293T
Put plainly: Cellular autophosphorylation assay, HEK293 cells transiently expressing VEGFR-1. The class given is cell-based. As for the experimental part:
Transfection of HEK293T cells and Ba/F3 cells with VEGFR-1-Flag, VEGFR-2-Flag or VEGFR-3-Flag expression constructs was performed using Fugene-6 (Roche) as per manufacturer’s protocol. Briefly, Fugene-6 was pre-incubated with Opti-Mem (Gibco) before adding DNA. After 24 h, media was replaced with serum-free culture media containing 0.2 % BSA. On the next day, cells were incubated for 1 h in 1 mM orthovanadate, harvested, dissociated and distributed at 4 x 10^5 cells in 5 mL for HEK-VEGFR-1 and HEK-VEGFR-3, and 5 x 10^4 cells per 5 mL for HEK VEGFR-2 in the presence of EVT801 or SAR401849. After 30 min, the reaction was stopped by the addition of cold PBS supplemented with 1 mM orthovanadate. Cells were then lysed with 150 μl of RIPA buffer for 15 min at 4°C, then centrifuged for 10 min at 10,000 g. Supernatants (75 μl) were distributed in duplicate on 96 well plates that were precoated with the anti-flag, and left for 1 h at room temperature. After 3 washes, the anti-phosphotyrosine conjugated to the HRP was added and incubated for 1 h at room temperature. Wells were then washed 3 times with TBS buffer containing 0.5 % Tween-20 and 2 mM MgCl2. The reaction was stopped with 50 μL of 2 N H2SO4, and the signal was read with Envision at the wavelengths of 485 nm and 530 nm.

In assay [2] the test system is NCI-H1703 tumor xenografts. Put plainly: NCI-H1703 subcutaneous xenograft tumor mouse model. The class given is in vivo, mice. To be noted: 30 mg/kg twice per day. As for the experimental part: A total number of 40 homozygous NOD.CB17 Prkdc^scid/NCrHsd mice were used for the xenograft tumor model. On the day of implantation, NCI-H1703 cells were harvested and suspended at a concentration of 1 × 10^8 cells per mL in an equal mix of Cultrex:RPMI without supplements. A volume of 100 μL was injected into the right hind flank of each animal. Tumor volumes were monitored until mean tumor volume reached 150 mm^3. Then, mice were stratified into four treatment groups of each 10 mice and orally dosed twice per day with either EVT801 30 mg/kg and EVT801 vehicle [Soluplus (BASF)/water/hydroxypropylcellulose SL (Nisso America)], or 30 mk/kg pazopanib and pazopanib vehicle (0.5% Hydroxypropyl methylcellulose trimellitate (HPMCT) + 0.1% Tween-80). A period of 8 hours was observed between the first and second daily dose.

The subject of assay [3] is 4T1 tumors. Put plainly: 4T1 mammary carcinoma mouse model, with anti-CTLA-4. The class given is in vivo, mice. As for the experimental part: The 4T1 mammary carcinoma mouse models were used as reported previously ([26]). Briefly, 1 × 10^5 4T1 cells were implanted into mammary fat pads of BALB/c mice. […] Tumors were measured two to three times weekly with calipers. The tumor volume (V) was calculated using the formula V = 0.52 × a^2 × b (a: smallest tumor diameter; b: largest tumor diameter). The tumors, lungs, and axillary lymph nodes were removed at day 21 for treatment with anti-PD-1, and day 28 for treatment with anti-CTLA-4. The tumors and the lungs were embedded in paraffin for histology studies. Intraperitoneal injection (10 mg/kg of antibody diluted at 1 mg/mL) was performed at day 6, day 11, and day 16 for treatment with anti-PD-1, and at day 6, day 11, day 16, and day 21 for treatment with anti-CTL-4 by using a 26G needle fitted to a plastic syringe in the right lower quarter of mice abdomen. The metastatic scoring was determined as follows: (0) no metastasis; ([1]) 1 to 20 metastases < 50 μm; ([2]) between 21 and 50 metastases < 50 μm; ([3]) 1 or more metastases > […]; ([4]) 1 or more metastases > […].
Whole blood samples were treated twice with ACK lysing buffer (Thermo Fisher Scientific, A1049201) to lyse red blood cells. Cell suspension were incubated for 15 minutes on ice in blocking buffer (FACS buffer: PBS 1 X, 1% FBS, 5 mmol/L Ethylene Diamine Tetra acetic Acid (EDTA) containing 3% rat serum, 3% mouse serum, 1:660 FC blocking antibody). Cell suspension were stained with an antibody mix either for myeloid-derived suppressor cell (MDSC) staining [anti-CD45 PE-Vio770 (Miltenyi Biotec, 130-110-799), anti-CD11b APC (eBioscience, 17-0112-82), anti-Ly6C AF700 (BD, 561237), anti-Ly6G BV421 (BD, 562737), anti-F4/80 BV510 (BD, 743280), anti-IA/I-E (MHCII), PercpCy5.5 (BD, 562363), anti-CD124 PE (BioLegend, 144804) or anti-rat IgG2bPE (Ozyme, BLE400608) isotype control, and the green fluorescent reactive dye (Thermo Fisher Scientific, L34960)], or for T-cell staining [anti-CD45 PE-Vio770 (Miltenyi Biotec, 130-110-799), anti-Thy1 APC-Cy7 (BioLegend, 105328), anti-CD4 PercpVio-700 (Miltenyi Biotec, 130-109-497), anti-CD8 BV510 (BD, 563068), anti-CD69 BV421 (BD 562920) or anti-rat IgG1a-BV421 (BD, 562919), and the green fluorescent reactive dye (Thermo Fisher Scientific, L34960)]. After incubation for 30 minutes at 4°C in the dark, cells were washed and suspended in FACS buffer. A total of 50 μL of CountBright Absolute counting beads (Thermo Fisher Scientific, C36950) were added just before cell acquisition on a FACS Fortessa X20 (Becton Dickinson). Analysis was performed with the FlowJo software. For calculation of cell concentration, the following formula was used: Concentration of cells/μL = (number of cell events/number of bead events) × (assigned bead count of the lot/volume of analyzed sample). Monocytic MDSCs (M-MDSC) were characterized as MHC-II^neg/CD11b^+/Ly6C^+/Ly6G^neg, whereas polymorphonuclear MDSCs (PMN-MDSC) were characterized as MHC-II^neg/CD11b^+/Ly6C^neg/Ly6G^+, as described previously ([31]). Among those populations, CD124^+ cells were considered as the activated subpopulations ([32]).
Blood was centrifuged at 8,000 rpm, for 5 minutes, at 4°C and the plasma was collected by harvesting the supernatant and stored at −80°C. Plasma samples were thawed at 4°C extemporaneously for MesoScale Discovery (MSD) analysis on a U-PLEX-4 Assay coated plate (U-PLEX Mouse KC, U-PLEX Mouse MIP-1α/CCL3, U-PLEX Mouse MIP-1β/CCL4, U-PLEX Mouse Rantes/CCL5 K15069L-1, Meso Scale Discovery). Analysis was performed following manufacturer's instructions.

The mark [4] stands for this setting: endpoint, 30 mg/kg twice per day.

T1 sequence (P17948 27-1338): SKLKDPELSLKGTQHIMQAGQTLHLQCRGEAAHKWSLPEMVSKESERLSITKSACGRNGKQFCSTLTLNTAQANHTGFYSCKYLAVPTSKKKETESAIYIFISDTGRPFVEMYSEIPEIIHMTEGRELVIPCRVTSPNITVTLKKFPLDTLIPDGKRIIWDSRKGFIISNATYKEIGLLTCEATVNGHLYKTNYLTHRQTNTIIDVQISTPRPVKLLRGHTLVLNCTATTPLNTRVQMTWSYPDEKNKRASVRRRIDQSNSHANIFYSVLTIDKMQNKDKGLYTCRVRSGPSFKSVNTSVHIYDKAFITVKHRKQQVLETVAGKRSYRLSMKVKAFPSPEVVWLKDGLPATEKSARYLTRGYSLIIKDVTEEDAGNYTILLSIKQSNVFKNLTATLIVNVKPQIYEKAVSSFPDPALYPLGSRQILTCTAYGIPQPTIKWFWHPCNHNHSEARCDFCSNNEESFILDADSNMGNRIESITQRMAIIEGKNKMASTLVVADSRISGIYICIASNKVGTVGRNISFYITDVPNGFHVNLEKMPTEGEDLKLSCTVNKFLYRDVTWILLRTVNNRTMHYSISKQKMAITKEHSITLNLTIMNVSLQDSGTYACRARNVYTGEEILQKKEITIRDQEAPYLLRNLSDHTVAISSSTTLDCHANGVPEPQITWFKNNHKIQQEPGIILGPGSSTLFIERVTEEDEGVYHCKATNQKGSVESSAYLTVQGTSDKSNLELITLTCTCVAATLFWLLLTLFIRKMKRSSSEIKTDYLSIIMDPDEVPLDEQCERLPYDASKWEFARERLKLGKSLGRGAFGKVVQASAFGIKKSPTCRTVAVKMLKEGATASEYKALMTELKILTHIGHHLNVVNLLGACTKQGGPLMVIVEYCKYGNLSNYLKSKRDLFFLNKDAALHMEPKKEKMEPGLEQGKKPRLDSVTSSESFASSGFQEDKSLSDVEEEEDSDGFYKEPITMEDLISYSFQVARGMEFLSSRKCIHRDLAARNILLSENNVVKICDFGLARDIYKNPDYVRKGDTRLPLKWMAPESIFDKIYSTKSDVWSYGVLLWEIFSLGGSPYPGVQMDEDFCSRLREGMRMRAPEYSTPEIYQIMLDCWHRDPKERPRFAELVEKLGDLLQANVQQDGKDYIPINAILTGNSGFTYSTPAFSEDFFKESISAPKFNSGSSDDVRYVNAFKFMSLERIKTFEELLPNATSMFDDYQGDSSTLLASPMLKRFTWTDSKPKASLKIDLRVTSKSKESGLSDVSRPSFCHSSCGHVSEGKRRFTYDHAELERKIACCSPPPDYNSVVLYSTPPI

The term IC50 denotes the point on the concentration scale where inhibition reaches its midpoint. On to `CCn1c(N)c(-c2ncc[nH]2)c(=O)c2ccc(C#C[C@@](C)(O)COC)nc21` [EVT801], for which, in assay [1] (HEK293T cellular autophosphorylation assay), the “maximum inhibition of VEGFR-1” value is listed as “below 50%”. Besides, in assay [1] (HEK293 cells, read-out: IC50 in cellular assays, VEGFR-1 autophosphorylation), the IC50 turned out to be 2.13 µM. Besides, in assay [2], the “CD31 IHC, tumor vessels” value is “decreased the number of vessels while increasing the proportion of larger ones”. Also, the “decrease of tumor weight compared with vehicle” value in assay [2] (endpoint) stood at 82%. The “T/C ratio, tumor growth” value in assay [2] (oral, vs corresponding vehicle) worked out at 24%. For the same molecule, in assay [3] (14 hours after the last dosing), the “reduction in circulation of each activated (CD124+) MDSC subpopulation (PMN-MDSCs, M-MDSCs) in the blood” value came to 2 fold. Further, the “increase in number of circulating CD8+ T cells” value in assay [3] (endpoint) worked out at 30%. Also, in assay [3] (setting [4]), the “change in circulating CCL4 levels” value was −50%, the “change in circulating CCL5 levels” value is given as −30% and the “circulating CCL3 levels” value was “unchanged”. The “T/C ratio, tumor growth” value in assay [3] (orthotopic, EVT801 30 mg/kg twice per day, anti-CTLA-4 twice per week, or both) was 53%.
